Blank lines part the entries; values can stand above or below the compound they belong to.
Tests used:
in vivo = experiment: in vivo
Experimental: The control article was 0.9% saline.
Blood was collected (via a jugular vein cannula inserted during surgery) during the 10-day post-dose phase for pharmacokinetics, hematology, clinical chemistry, glucose, and morning cortisol analysis.
Because of the variability in the volume of the sinus in sheep, the total volume varied from 5 to 15 mL. Doses calculated by body weight and body surface area (BSA) are also shown.

[1] = humans with psoriasis, topical betamethasone dipropionate 0.05% spray or lotion BID for 15 days; majority of subjects not measurable; cited from earlier work
[2] = cited from earlier work
[3] = Recovery of force-degraded fluticasone propionate spiked into placebo and of active cream, HPLC; type: physicochemical; conditions: for Peak Area FP / Peak Area RRT = 0.32 / Peak Area RRT = 0.33 / Peak Area RRT = 1.17 / Total MFM-Related Area: Spiked into placebo
[4] = system: Streptococci, Staphylococci, Gardnerella vaginalis, and Corynebacteria; conditions: cited from earlier work
Pseudomonas aeruginosa = conditions: cited from earlier work
[5] = Forced degradation of fluticasone propionate, percent recovery by HPLC; type: physicochemical
Experimental: A similar analysis was performed of the 0.005% fluticasone propionate cream (lot #2021-07-01).

[6] = male, Merino, sheep, in vivo, Betamethasone plasma concentration, Mean
[7] = male, Merino, sheep, in vivo, Individual betamethasone plasma concentrations

Structure (SMILES): CCC(=O)O[C@]1(C(=O)CO)[C@@H](C)C[C@H]2[C@@H]3CCC4=CC(=O)C=C[C@]4(C)[C@@]3(F)[C@@H](O)C[C@@]21C [Betamethasone 17-propionate, betamethasone 17-propionate]
- plasma levels detected through (in vivo; in vivo): 3 days post-dose
- Tmax (in vivo; sheep plasma, intra-sinus 0.05% betamethasone dipropionate cream, median (range), n = 6): 0.5 (0.5-2) hr
- AUCinf (in vivo; sheep, in vivo): 59.3 ± 44.8 ng·h/mL
- AUClast (in vivo; sheep, in vivo): 58.3 ± 44.7 ng·h/mL
- Apparent half-life (in vivo; sheep, in vivo): 9.5 ± 2.2 h
- Cmax (in vivo; sheep, in vivo): 8,279 ± 3,376 pg/ml

Structure (SMILES): CCC(=O)OCC(=O)[C@@]1(OC(=O)CC)[C@@H](C)C[C@H]2[C@@H]3CCC4=CC(=O)C=C[C@]4(C)[C@@]3(F)[C@@H](O)C[C@@]21C [Betamethasone dipropionate, 9-Fluoro-11β,17,21-trihydroxy-16β-methylpregna-1,4-diene-3,20-dione 17,21-dipropionate]
- plasma concentration [1]: < 5 pg/mL
- Biological Half Life [2]: 36-54 Hours

- AUC(0-inf) (in vivo; male, Merino, sheep, in vivo): 35.2 ± 8.3 ng·h/mL
- AUC(0-t) (in vivo; male, Merino, sheep, in vivo): 33.5 ± 8.9 ng·h/mL
- Cmax (in vivo; male, Merino, sheep, in vivo): 0.98 ± 0.397 ng/mL
- Tmax (in vivo; male, Merino, sheep, in vivo): 24 h
- plasma levels detected through (in vivo; male, Merino, sheep, in vivo): 3 days post-dose
- time of maximum plasma levels (in vivo; male, Merino, sheep, in vivo): about 24 hr post-dose
- concentration at 0 h (in vivo; [6]): 0 ng/mL
- concentration at 0.5 h (in vivo; [6]): 0.152 ng/mL
- concentration at 1 h (in vivo; [6]): 0.307 ng/mL
- concentration at 2 h (in vivo; [6]): 0.518 ng/mL
- concentration at 6 h (in vivo; [6]): 0.74 ng/mL
- concentration at 24 h (in vivo; [6]): 0.964 ng/mL
- concentration at 48 h (in vivo; [6]): 0.223 ng/mL
- concentration at 72 h (in vivo; [6]): 0.071 ng/mL
- concentration at 0 h (in vivo; [7]): 0 ng/mL
- concentration at 48 h (in vivo; [7]): 0.229 ng/mL
Structure (SMILES): C[C@H]1C[C@H]2[C@@H]3CCC4=CC(=O)C=C[C@]4(C)[C@@]3(F)[C@@H](O)C[C@]2(C)[C@@]1(O)C(=O)CO [Betamethasone, betamethasone]

- Difference with Placebo (neat vs spiked recovery) ([3]; 0.1N HC1 (1 hour)): 6.03%
- Difference with Placebo (neat vs spiked recovery) ([3]; 0.1N NaOH (1 hour)): 0.19%
- Difference with Placebo (neat vs spiked recovery) ([3]; 3% H2O2 (1 hour)): 4.03%
- Difference with Placebo (neat vs spiked recovery) ([3]; 60° C. (3 days)): 1.09%
- Difference with Placebo (neat vs spiked recovery) ([3]; Control (undegraded FP, kept at 4 C.)): 0.2-1.1% ^
- Difference with Placebo (neat vs spiked recovery) ([3]; White light (3 days)): 2.71%
Structure (SMILES): CCC(=O)O[C@]1(C(=O)SCF)[C@H](C)C[C@H]2[C@@H]3C[C@H](F)C4=CC(=O)C=C[C@]4(C)[C@@]3(F)[C@@H](O)C[C@@]21C [Fluticasone Propionate 0.005%]

Structure (SMILES): C[C@H]1C[C@@H]2[C@H]([C@@H](O)C[C@@]3(C)[C@H]2CC[C@]3(O)C(=O)CO)[C@@]2(C)C=CC(=O)C=C12 [Methyl-prednisolone, methylprednisolone]
- Biological Half Life [2]: 18-36 Hours

Structure (SMILES): Clc1ccccc1C(c1ccccc1)(c1ccccc1)n1ccnc1 [clotrimazole]
- antibacterial activity [4]: antibacterial activity
- effect on Pseudomonas aeruginosa (Pseudomonas aeruginosa): reduction

- Actual Amount ([5]; Acid (0.1N HCl, 1 hour)): 12.1791 µg/mL
- Actual Amount ([5]; Base (0.1N NaOH, 1 hour)): 11.7484 µg/mL
- Actual Amount ([5]; Control): 12.5695 µg/mL
- Actual Amount ([5]; Heat (60° C., 3 days)): 12.0739 µg/mL
- Actual Amount ([5]; Light (white light, 3 days)): 11.6609 µg/mL
- Actual Amount ([5]; Peroxide (3% H2O2, 1 hour)): 16.4961 µg/mL
- Peak Area FP ([3]; Acid): 2.377
- Peak Area RRT = 0.32 ([3]; Acid): 0.033
- Peak Area RRT = 0.33 ([3]; Acid): no peak
- Peak Area RRT = 1.17 ([3]; Acid): 0.221
- Total MFM-Related Area ([3]; Acid): 2.631
- Peak Area FP ([3]; Base): 2.395
- Peak Area RRT = 0.32 ([3]; Base): 0.032
- Peak Area RRT = 0.33 ([3]; Base): no peak
- Peak Area RRT = 1.17 ([3]; Base): 0.166
- Total MFM-Related Area ([3]; Base): 2.593
- Peak Area FP ([3]; Control): 2.607
- Peak Area RRT = 0.32 ([3]; Control): no peak
- Peak Area RRT = 0.33 ([3]; Control): 0.012
- Peak Area RRT = 1.17 ([3]; Control): 0.046
- Total MFM-Related Area ([3]; Control): 2.665
- Peak Area FP ([3]; Heat): 2.924
- Peak Area RRT = 0.32 ([3]; Heat): no peak
- Peak Area RRT = 0.33 ([3]; Heat): no peak
- Peak Area RRT = 1.17 ([3]; Heat): 0.183
- Total MFM-Related Area ([3]; Heat): 3.107
- Peak Area FP ([3]; Light): 2.599
- Peak Area RRT = 0.33 ([3]; Light): no peak
- Peak Area RRT = 1.17 ([3]; Light): 0.159
- Total MFM-Related Area ([3]; Light): 2.791
- Peak Area FP ([3]; Peroxide): 2.424
- Peak Area RRT = 0.32 ([3]; Peroxide): no peak
- Peak Area RRT = 0.33 ([3]; Peroxide): no peak
- Peak Area RRT = 1.17 ([3]; Peroxide): no peak
- Total MFM-Related Area ([3]; Peroxide): 2.424
Structure (SMILES): CCC(=O)O[C@]1(C(=O)SCF)[C@H](C)C[C@H]2[C@@H]3C[C@H](F)C4=CC(=O)C=C[C@]4(C)[C@@]3(F)[C@@H](O)C[C@@]21C [fluticasone propionate]

Structure (SMILES): C[C@]12CCC(=O)C=C1CC[C@@H]1[C@@H]2[C@@H](O)C[C@@]2(C)[C@H]1CC[C@]2(O)C(=O)CO [hydrocortisone]
- Biological Half Life [2]: 8-12 Hours

Structure (SMILES): C[C@]12C=CC(=O)C=C1CC[C@@H]1[C@@H]2[C@@H](O)C[C@@]2(C)[C@H]1CC[C@]2(O)C(=O)CO [prednisolone]
- Biological Half Life [2]: 18-36 Hours

Structure (SMILES): C[C@]12C=CC(=O)C=C1CC[C@H]1[C@@H]3C[C@@H](O)[C@](O)(C(=O)CO)[C@@]3(C)C[C@H](O)[C@@]12F [triamcinolone]
- Biological Half Life [2]: 18-36 Hours

Reference: patent US20230277452A1, “COMPOSITIONS, DEVICES AND METHODS FOR TREATING NASAL, OTIC AND OTHER TISSUE INFECTION AND/OR INFLAMMATION” (priority 2020, published 2023)
